Test results published in ChEMBL document CHEMBL1759955, “6-Benzoyl-3-hydroxypyrimidine-2,4-diones as dual inhibitors of HIV reverse transcriptase and integrase” (Bioorg Med Chem Lett, 2011).

Columns and labels:
CEM-SS [1] = experiment: Cytotoxicity against human CEM-SS cells; type: cell-based
[2] = Therapeutic index, ratio of CC50 for human CEM-SS cells to EC50 for HIV-1 3B infected in human CEM-SS cells; type: cell-based; conditions: CEM-SS cells (uninfected, and infected with HIV-1 3B)
CEM-SS [3] = experiment: Cytotoxicity against human CEM-SS cells assessed as viable cells at 10 uM; type: cell-based
[4] = test system: Human immunodeficiency virus 1; experiment: Antiviral activity against HIV-1 3B infected in human CEM-SS cells; type: functional, organism-based; conditions: Human immunodeficiency virus 1, 3B
[5] = biological target: T1, Human immunodeficiency virus type 1 integrase (Human immunodeficiency virus 1, UniProt Q7ZJM1); experiment: Inhibition of HIV1 integrase strand transfer activity
[6] = test system: Human immunodeficiency virus 1; experiment: Antiviral activity against HIV-1 3B infected in human CEM-SS cells assessed as protection against virus induced cytopathic effect at 10 uM; type: functional; conditions: Human immunodeficiency virus 1, 3B
[7] = biological target: Human immunodeficiency virus type 1 reverse transcriptase (Human immunodeficiency virus 1, UniProt Q72547); experiment: Inhibition of HIV-1 reverse transcriptase
[8] = biological target: T1, Human immunodeficiency virus type 1 integrase; experiment: Inhibition of HIV1 integrase 3'-end processing activity
[9] = biological target: Human immunodeficiency virus type 1 reverse transcriptase (Human immunodeficiency virus 1) (UniProt Q72547); experiment: Inhibition of HIV-1 reverse transcriptase at 10 uM
[10] = biological target: Human immunodeficiency virus type 1 reverse transcriptase (Human immunodeficiency virus 1) (UniProt Q72547); experiment: Inhibition of HIV-1 reverse transcriptase at 100 uM

T1 sequence (Q7ZJM1 whole entry): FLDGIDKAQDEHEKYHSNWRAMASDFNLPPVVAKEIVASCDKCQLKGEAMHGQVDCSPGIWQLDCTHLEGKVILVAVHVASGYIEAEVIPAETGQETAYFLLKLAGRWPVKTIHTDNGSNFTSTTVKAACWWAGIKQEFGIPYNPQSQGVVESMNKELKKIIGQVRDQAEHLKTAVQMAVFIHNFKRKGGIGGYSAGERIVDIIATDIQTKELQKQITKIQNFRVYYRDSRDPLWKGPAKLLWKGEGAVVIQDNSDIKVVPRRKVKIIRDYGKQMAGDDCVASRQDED

| Structure (SMILES) | CC50 (CEM-SS [1]) | selectivity ratio [2] | Activity (CEM-SS [3]) | EC50 [4] | IC50 [5] | inhibition at 10 µM [6] | IC50 [7] | IC50 [8] | inhibition [9] | inhibition [10] |
| --- | --- | --- | --- | --- | --- | --- | --- | --- | --- | --- |
| CCc1c(C(=O)c2ccccc2)n(COCc2ccccc2)c(=O)n(O)c1=O | > 100 µM | > 71 | 98% | 1.4 µM | 37 µM | 100% | 14 µM | > 111 µM |  |  |
| CCc1c(C(=O)c2cc(C)cc(C)c2)n(COCc2ccc(F)cc2)c(=O)n(O)c1=O | 28 µM | 78 | 100% | 0.36 µM | 21 µM | 100% | 7.6 µM | > 111 µM |  |  |
| CCc1c(C(=O)c2ccccc2)n(COCCc2ccc(F)cc2)c(=O)n(O)c1=O | > 100 µM | > 290 | 100% | 0.34 µM | 4.1 µM | 100% |  | > 111 µM | 4% | 46% |
| CCOCn1c(C(=O)c2cc(C)cc(C)c2)c(CC)c(=O)n(O)c1=O | 77 µM | 2600 | 100% | 0.03 µM | > 111 µM | 100% | 0.5 µM | > 111 µM | 61% | 94% |
| CCc1c(C(=O)c2cc(C)cc(C)c2)n(COCCc2ccc(F)cc2)c(=O)n(O)c1=O |  |  | 81% |  | 7 µM | 56% | 10 µM | > 111 µM | 60% | 74% |
| CCOCn1c(C(=O)c2ccccc2)c(CC)c(=O)n(O)c1=O | 94 µM | 41 | 100% | 2.3 µM | > 111 µM | 100% | 43 µM | > 111 µM |  |  |
| CCc1c(C(=O)c2cc(C)cc(C)c2)n(COCc2ccccc2)c(=O)n(O)c1=O | 33 µM | 540 | 100% | 0.061 µM | 41 µM | 100% | 1 µM | > 111 µM | 79% | 92% |
| CCc1c(C(=O)c2ccccc2)n(COCc2ccc(F)cc2)c(=O)n(O)c1=O | > 100 µM | > 50 | 100% | 2 µM | 25 µM | 100% | 23 µM | > 111 µM |  |  |
